According to article PMC7583942, “Profiling Anticancer and Antioxidant Activities of Phenolic Compounds Present in Black Walnuts (Juglans nigra) Using a High-Throughput Screening Approach” (Molecules, 2020):
Read-outs that look alike come from different tables or passages of the source.

Assays:
[1] = system: antioxidant response element (ARE) in HepG2-ARE cells; test: Antioxidant response element (ARE) activation, Steady-Glo luciferase reporter assay; assay type: cell-based, human; conditions: for toxicity to HepG2-ARE cells: at high concentrations, did not induce ARE activation
Experimental: An Nrf2 antioxidant response element (ARE) reporter HepG2 cell line, a stably transfected liver cell line expressing a firefly luciferase gene under the control of the ARE, was purchased from BPS Bioscience (San Diego, CA, USA). The human alveolar epithelial cell line A549 and the human lung fibroblast cell line MRC-5 were obtained from American Type Culture Collection (ATCC) (CCL-185 and CCL-171, ATCC, Manassas, VA, USA). The HepG2-ARE cells were grown in modified Eagle’s medium (MEM) supplemented with GlutaMAX, 10% fetal calf serum (FBS) and 600ug/mL Geneticin (Thermo Fisher Scientific, Waltham, MA, USA). The tumorigenic alveolar epithelial cells (A549) and non-tumorigenic lung fibroblast cells (MRC-5) were grown in RPMI medium supplemented with 10% FBS. All cells were grown and maintained at 37 °C in a humidified incubator with 5% CO2.
The impact of the phenolic compounds on ARE activation in the HepG2-ARE cell line was evaluated using Steady-Glo® Luciferase assay system (E2510, Promega, Madison, WI, USA), following the manufacturer’s instructions. In brief, the HepG2 -ARE cells were seeded at a density of 10,000 cells/well in 384-well plates containing 50 µL of the complete media per well using a Multidrop Combi dispenser (Thermo Fisher Scientific, Waltham, MA, USA) and then the plate cultures were incubated at 37 °C in a 5% CO2 humidified incubator for 20 h. The HepG2-ARE cells were incubated with compounds for 18 h. The known ARE activator TBHQ was used as a positive control and the cells treated with 0.35% DMSO and without compounds tested served as a vehicle control. The cells in the absence of DMSO and the compounds were utilized for measuring the background luminescence. The reporter activity was measured by the addition of 25 µL Steady-Glo® luciferase assay reagent (Promega) for 30 min using the Multidrop Combi dispenser (Thermo Fisher Scientific). The luminescence intensities of the 384-well plates were read on Enspire microplate reader (Perkin Elmer Inc.). Percent cytotoxicity of compounds was normalized to the positive and negative controls on each assay plate.
The ARE fold induction of the compounds was measured by dividing the luminescence absorbance of the treatment by the specific luminescence absorbance of the control sample and multiplying by 100. The control sample (in the presence of DMSO vehicle and without the compounds) was set at 100%.

[2] = system: non-tumorigenic lung fibroblast cells (MRC-5); test: Cell proliferation assay (CellTiter-Glo), MRC-5; assay type: cell-based, human; conditions: read-out: Half maximal inhibitory concentration (IC50), MRC-5 Cell Line
Experimental: (§1) An Nrf2 antioxidant response element (ARE) reporter HepG2 cell line, a stably transfected liver cell line expressing a firefly luciferase gene under the control of the ARE, was purchased from BPS Bioscience (San Diego, CA, USA). The human alveolar epithelial cell line A549 and the human lung fibroblast cell line MRC-5 were obtained from American Type Culture Collection (ATCC) (CCL-185 and CCL-171, ATCC, Manassas, VA, USA). The HepG2-ARE cells were grown in modified Eagle’s medium (MEM) supplemented with GlutaMAX, 10% fetal calf serum (FBS) and 600ug/mL Geneticin (Thermo Fisher Scientific, Waltham, MA, USA). […] All cells were grown and maintained at 37 °C in a humidified incubator with 5% CO2. Influence of the phenolic compounds on cell growth in the tumorigenic alveolar epithelial cells (A549) and non-tumorigenic lung fibroblast cell (MRC-5) cell lines was investigated using the CellTiter-Glo® cell viability assay kit (G7571, BioVision, CA, USA), according to the manufacturer’s instructions. […] The cultures were treated with the phenolic compounds and DL-Sulphorane (a known antiproliferative agent as a positive control) at 7 final concentrations (as mentioned above) and a vehicle (0.35% DMSO). After 72h of incubation, CellTiter-Glo Luminescent assay reagent (Promega) was dispensed at a volume of 10 µL per well into the 384-well plates for 10 min using the Matrix Wellmate dispenser (Thermo Fisher Scientific). The plates were allowed to incubate at room temperature for 20 min and then the luminescence was read using an Enspire microplate reader (Perkin Elmer Inc.) The relative cytotoxicity (%) of the phenolic compounds was calculated by dividing the specific luminescence absorbance of the treated sampled by the specific luminescence absorbance of the control sample and multiplying by 100. The control sample (in the presence of DMSO vehicle and without the compounds) was set at 100%. Non-linear regression analysis of data was performed to identify the dose-response curve for each compound. The IC50 values (half maximal inhibitory concentration) of each compound were determined from the dose-response curve for the A549 and MRC-5 cell lines using GraphPad Prism 8.

[3] = Total antioxidant capacity (TAC) colorimetric assay; conditions: for Fold-Increase Over Trolox: coefficient of compound model divided by coefficient of Trolox control; for total antioxidant capacity compared with the control (Trolox): in words; for Slope (in Trolox Equivalents): linear regression of dose-response, 7 concentrations, Cu2+ reagent, 1.5 h, absorbance 570 nm
Experimental: The antioxidant capacity of the phenolic compounds was evaluated using a total antioxidant capacity (TAC) colorimetric assay kit (K274-100, BioVision, CA, USA), according to the manufacturer’s instructions. Briefly, the phenolic compounds tested at 7 concentrations (as described above) were added to 384-well plates. Subsequently, Cu^2+ working solution (12.5 µL/ well) was added into the sample wells. The 384-well plates were incubated for 1.5 h at room temperature and the absorbance of the samples was then read at 570 nm using a microplate reader (Enspire, Perkin Elmer Inc., Waltham, MA, USA). Trolox was used to standardize the antioxidant capacity, as recommended by the manufacturer. A Trolox standard curve was included, and the total antioxidant capacity of the phenolic compounds was interpolated and expressed as Trolox equivalent (mM) from a seven-parameter logistic curve of the Trolox control using curve-fitting software.
For total antioxidant capacity analysis, linear regression analysis was performed to identify the linear regression equation for each compound using GraphPad Prism 8 (San Diego, CA, USA). The coefficient of the compound equation was compared with the coefficient of the Trolox control to determine the relative total antioxidant capacity of each compound. Fold-increase over Trolox was calculated by dividing the coefficient of the compound models by the coefficient of the Trolox control.

[4] = system: tumorigenic alveolar epithelial cells (A549); test: Cell proliferation assay (CellTiter-Glo), A549; assay type: cell-based, human; conditions: read-out: Half maximal inhibitory concentration (IC50), A549 Cell Line
Experimental: as §1

[5] = Homo sapiens, MRC5, 72 h incubation
[6] = Homo sapiens, A549, 72 h incubation

SMILES | IC50 [4, 6] [µM] | toxicity to HepG2-ARE cells [1] | IC50 ([2]; 72 h incubation) [µM] | Fold-Increase Over Trolox [3] | total antioxidant capacity compared with the control (Trolox) [3] | Slope (in Trolox Equivalents) [3] | IC50 ([4]; 72 h incubation) [µM] | IC50 [2, 5] [µM] | ARE activation among all compounds (rank in words) ([1]; HepG2-ARE cells, 18 h)
O=c1c(O[C@@H]2O[C@H](CO)[C@@H](O)[C@H](O)[C@H]2O)c(-c2ccc(O)c(O)c2)oc2cc(O)cc(O)c12 [Quercetin 3-β-D-glucoside] | – | toxic to cells | 12.2 | 2.9 | higher | 0.002908 ± 1.522 × 10^−4 | 6.89 | – | –
O=c1oc2c(O)c(O)cc3c(=O)oc4c(O)c(O)cc1c4c23 [Ellagic acid] | > 250 | – | – | 0.5 | lower | 0.0005183 ± 2.860 × 10^−5 | – | > 250 | –
O=C(OC[C@H]1O[C@@H](OC(=O)c2cc(O)c(O)c(O)c2)[C@H](OC(=O)c2cc(O)c(O)c(O)c2)[C@@H](OC(=O)c2cc(O)c(O)c(O)c2)[C@@H]1OC(=O)c1cc(O)c(O)c(O)c1)c1cc(O)c(O)c(O)c1 [Penta-O-galloyl-β-D-glucose] | – | toxic to cells | 10.4 | 11.5 | higher | 0.01167 ± 5.756 × 10^−4 | 6.11 | – | –
Oc1cc(O)c2c(c1)O[C@H](c1ccc(O)c(O)c1)[C@H](O)C2 [(−)-Epicatechin] | > 250 | – | – | 3.7 | higher | 0.003729 ± 7.546 × 10^−5 | – | > 250 | strongest
COc1cc(/C=C/C(=O)O)ccc1O [Ferulic acid] | – | – | > 250 | 1.8 | higher | 0.001775 ± 5.026 × 10^−5 | > 250 | – | –
Oc1cc(O)c2c(c1)O[C@H](c1ccc(O)c(O)c1)[C@@H](O)C2 [(+)-Catechin] | – | – | > 250 | 2.0 | higher | 0.002029 ± 3.184 × 10^−5 | > 250 | – | –
O=C(O[C@@H]1Cc2c(O)cc(O)cc2O[C@@H]1c1ccc(O)c(O)c1)c1cc(O)c(O)c(O)c1 [Epicatechin gallate] | 66 | toxic to cells | – | 4.2 | higher | 0.004294 ± 1.570 × 10^−4 | – | 64.4 | –
Cc1c(C)c2c(c(C)c1O)CCC(C)(C(=O)O)O2 (centres unmarked) [Trolox, reference compound] | – | – | – | 1.0 | – | 0.001014 ± 1.125 × 10^−5 | – | – | –
C[S+]([O-])CCCCN=C=S (racemic) [DL-Sulforaphane, reference compound] | – | – | 9.95 | – | – | – | 17 | – | –

More lines, main results first:

IC50 [4, 6] [µM] | SMILES | toxicity to HepG2-ARE cells [1] | IC50 ([2]; 72 h incubation) [µM] | Fold-Increase Over Trolox [3] | total antioxidant capacity compared with the control (Trolox) [3] | Slope (in Trolox Equivalents) [3] | IC50 ([4]; 72 h incubation) [µM] | IC50 [2, 5] [µM] | ARE activation among all compounds (rank in words) ([1]; HepG2-ARE cells, 18 h)
> 250 | C[C@@H]1O[C@@H](OC[C@H]2O[C@@H](Oc3c(-c4ccc(O)c(O)c4)oc4cc(O)cc(O)c4c3=O)[C@H](O)[C@@H](O)[C@@H]2O)[C@H](O)[C@H](O)[C@H]1O [Rutin] | – | – | 2.9 | higher | 0.002962 ± 1.551 × 10^−4 | – | > 250 | –
> 250 | COc1cc(C(=O)O)ccc1O [Vanillic acid] | – | – | 0.7 | lower | 0.0007396 ± 4.245 × 10^−5 | – | > 250 | –
87.7 | O=c1c(O)c(-c2ccc(O)c(O)c2)oc2cc(O)cc(O)c12 [Quercetin] | – | – | 4.0 | higher | 0.004045 ± 1.392 × 10^−4 | – | 99.5 | –
> 250 | O=C(O)c1ccc(O)cc1 [p-Hydroxybenzoic acid] | – | – | – | lower | −0.000008 ± 1.260 × 10^−5 | – | > 250 | –
> 250 | COc1cc(C(=O)O)cc(OC)c1O [Syringic acid] | – | – | 1.1 | higher | 0.001088 ± 1.057 × 10^−5 | – | > 250 | –
> 250 | C[C@@H]1O[C@@H](O[C@H]2[C@H](Oc3cc(O)c4c(c3)O[C@H](c3ccc(O)cc3)CC4=O)O[C@H](CO)[C@@H](O)[C@@H]2O)[C@H](O)[C@H](O)[C@H]1O [Naringin] | – | – | 0.5 | lower | 0.0005177 ± 9.755 × 10^−6 | – | > 250 | –
> 250 | O=C(O)[C@]1(O)C[C@@H](O)[C@@H](O)[C@H](O)C1 [Quinic acid] | – | – | <0.1 | lower | −0.0000004 ± 1.034 × 10^−6 | – | > 250 | –
> 250 | O=C(O)C=Cc1ccc(O)cc1 [p-Coumaric acid] | – | – | 0.3 | lower | 0.0003139 ± 1.434 × 10^−5 | – | > 250 | –
> 250 | O=C(O)c1cc(O)c(O)c(O)c1 [Gallic acid] | – | – | – | higher | 0.002541 ± 1.392 × 10^−5 | – | 48.2 | –
